From ChEMBL document CHEMBL4043198, “Synthesis and electronic properties of ester substituted 1,4-dicyanodibenzodioxins and evaluation of anti-proliferative activity of all isomeric 1,2-, 2,3- and 1,4-dicyanodibenzodioxins against HeLa cell line” (Bioorg Med Chem Lett, 2017)
Activity calls are given as the source filed them. No cut-off for these calls is given here.

How the values were obtained:
HeLa [1] = test: Induction of morphological changes in human HeLa cells assessed as loss of cell shape after 24 hrs by Hoechst 33258 staining based fluorescence microscopic analysis; format: functional
HeLa [2] = test: Induction of morphological changes in human HeLa cells assessed as rounding-off of cells after 24 hrs by Hoechst 33258 staining based fluorescence microscopic analysis; format: functional, cell-based
HeLa [3] = test: Cytotoxicity against human HeLa cells assessed as reduction in cell viability after 24 hrs by MTT assay; format: functional, cell-based
HeLa [4] = test: Cytotoxicity against human HeLa cells assessed as cell viability at 2 uM after 24 hrs by MTT assay relative to control; format: functional; conditions: read-out: Activity
Bos taurus = organism: Bos taurus; test: Binding affinity to calf thymus DNA assessed as intrinsic binding constant by UV spectrophotometry
HEK293 = test: Cytotoxicity against HEK293 cells assessed as reduction in cell viability at 2 to 5 uM after 24 hrs by MTT assay; format: cell-based; conditions: human, hek293, 24 h
HeLa [5] = test: Induction of morphological changes in human HeLa cells assessed as nuclear fragmentation after 24 hrs by Hoechst 33258 staining based fluorescence microscopic analysis; format: functional, cell-based
HeLa [6] = test: Induction of reactive oxygen species generation in human HeLa cells at 5 to 10 uM after 24 hrs by DCFDA dye-based fluorescence assay; format: functional, cell-based
HeLa [7] = test: Cytotoxicity against human HeLa cells assessed as reduction in cell viability at 2 to 50 uM after 24 hrs by MTT assay relative to control; format: functional

SMILES	Activity (HeLa [1])	Activity (HeLa [2])	Activity (HeLa [3])	IC50 (HeLa [3])	viability at 2 µM (HeLa [4])	logKb (Bos taurus)	Activity (HEK293)	Activity (HeLa [5])	Activity (HeLa [6])	Activity (HeLa [7])
COc1c(F)c(C#N)c2c(c1C#N)Oc1ccccc1O2	Dose-dependent effect	Dose-dependent effect	Dose-dependent effect	1450 nM	30%	5.38	Non-Toxic	Dose-dependent effect	Active	–
COC(=O)c1ccc2c(c1)Oc1c(C#N)c(F)c(F)c(C#N)c1O2	Dose-dependent effect	Dose-dependent effect	Dose-dependent effect	2990 nM	50%	5.39	Non-Toxic	Dose-dependent effect	Active	–
O=c1[nH]cc(F)c(=O)[nH]1 [FLUOROURACIL]	–	–	–	2900 nM	–	–	–	–	–	–
COC(=O)c1cccc2c1Oc1c(C#N)c(F)c(F)c(C#N)c1O2	Dose-dependent effect	Dose-dependent effect	Dose-dependent effect	1570 nM	35%	6	Non-Toxic	Dose-dependent effect	Active	–
N#Cc1c(F)c(F)c(C#N)c2c1Oc1ccccc1O2	–	–	Dose-dependent effect	9620 nM	–	–	Non-Toxic	–	–	70 - 80%
N#Cc1cc2c(cc1C#N)Oc1ccccc1O2	–	–	Dose-dependent effect	–	–	–	Non-Toxic	–	–	70 - 80%
N#Cc1cc2c(cc1C#N)Oc1cc([N+](=O)[O-])ccc1O2	–	–	–	–	–	–	–	–	–	70 - 80%
CC/C(=C(\c1ccccc1)c1ccc(OCCN(C)C)cc1)c1ccccc1 [TAMOXIFEN]	–	–	–	8850 nM	–	–	–	–	–	–
N#Cc1cc2c(cc1C#N)Oc1cc(Br)ccc1O2	–	–	Dose-dependent effect	8820 nM	–	–	Non-Toxic	–	–	70 - 80%
CCN(CC)c1c(F)c(C#N)c2c(c1C#N)Oc1ccccc1O2	Dose-dependent effect	Dose-dependent effect	Dose-dependent effect	1470 nM	30%	5.5	Non-Toxic	Dose-dependent effect	Active	–
N#Cc1c(F)c(F)c2c(c1C#N)Oc1ccccc1O2	–	–	Dose-dependent effect	42200 nM	–	–	Non-Toxic	–	–	–
